Test results published in PMC12555100, “Dextromethorphan Versus Dextrorphan: A Quantitative Comparison of Antitussive Potency Following Separate Administration of Metabolite” (Journal of Clinical Pharmacology, 2025).
“Also recorded” adds a separate entry of the source.

Assays:
[1] = tested on: cough response to citric acid challenge; test: Citric acid cough challenge test, model-independent analysis of antitussive effect; format: in vivo, human; conditions: for Emax, maximum percentage of cough number reduction, mean: mean of 23 healthy volunteers, change relative to baseline; for Emax, maximum percentage of cough number reduction, mean / Emax, maximum percentage of cough number reduction, median: after 40.5 mg dextromethorphan hydrobromide or 44.6 mg dextrorphan-D-tartrate; for AUEC0‐24 h, mean / AUEC0‐24 h, median: area under percent reduction in cough number vs time 0-24 h; for AUEC0‐24 h, mean / TEmax, time of maximum percentage of reduction in cough number, mean / AUEC0‐24 h, median / TEmax, time of maximum percentage of reduction in cough number, median: healthy volunteers; for TEmax, time of maximum percentage of reduction in cough number, mean / TEmax, time of maximum percentage of reduction in cough number, median: after DEX or DOR administration; for Emax, maximum percentage of cough number reduction, median: median of 23 healthy volunteers; for Emax and TEmax compared between DEX, DOR and placebo arms: model-independent analysis; for Antitussive effect (AUEC0‐24 h) compared between DEX, DOR and placebo arms: model-independent pairwise analysis, Friedman test with Dunn's multiple comparison
Description: The clinical trial has been performed according to the Declaration of Helsinki and was approved by the North Sheffield Research and Ethics Committee (approval number NS98/183). All participants enrolled into the clinical trial have given informed consent. Data were collected from twenty‐three healthy non‐smoker volunteers (12 male) aged 19‐51 years who took part in a double‐blind randomized placebo controlled cross‐over study. […] The exclusion criteria were respiratory tract infection or acute cough within the last 4 weeks, receiving any medication within previous 2 weeks, and any medical condition which may interfere with the study. Preceding the visit day, the volunteer was asked to fast for 8 h, abstain from alcohol, and abstain from caffeinated drinks throughout the study day. Written informed consent was obtained from all volunteers. The study was approved by the […] Research and Ethics Committee. Subjects' cough response to citric acid challenge test was studied on three separate occasions (separated at least 7 days apart) following administration of (i) placebo; (ii) 40.5 mg dextromethorphan hydrobromide; (iii) 44.6 mg of dextrorphan‐D‐tartrate. The order of treatments (placebo, DEX, and DOR) was randomized across participants using a balanced Latin square design to ensure equal distribution of sequence effects. Blood samples for PK analysis were taken periodically (at 0, 1, 2, 3, 4, 5, 6, 8, 10, 12, and 24 h post administration of DEX and DOR).
Details of the cough challenge test were described previously.[24] In summary, cough was produced by five inhalations of 3 mL 10% w/v citric acid (placed in a nebulizing chamber) over 5 min. Prior to randomization, all volunteers underwent a two‐part screening process. Volunteers who coughed between 7 and 14 times following five inhalations of a 10% citric acid solution at the first visit, were considered eligible for further screening. The second visit evaluated both interday and intraday cough response consistency. The acceptable level of variability in cough frequency was established as no more than 20% between separate days and within a single day across three separate measurements. The frequency of cough response was measured at baseline (prior to placebo or drug administration, t = −1 h) and at regular intervals up to 24 h. Cough measurements were obtained at the same time points as blood sampling.
The percent of change in cough number relative to the baseline (t = 0) was plotted against time and the maximum reduction in cough response (Emax) and its […] (TEmax) were determined. The area under the percent of reduction in cough number against time between 0 until 24 h (AUEC0‐24 h) was calculated using the trapezoidal rule. The correlation between AUEC0‐24 h and area under plasma concentration time between zero and 24 h (AUC0‐24 h) of DEX, (endogenously) formed DOR and directly administered DOR was statistically examined using Spearman rank correlation test. The Friedman test (followed by Dunn's multiple comparison) was used to compare the AUC values of DEX and DOR, as well as the AUEC values, between the different arms of the study.

[2] = Population pharmacokinetic model (joint parent drug-metabolite model; two-compartment model for DOR given on its own); format: in vivo, human; conditions: for Vd/F / Between‐subject variability of V/F: after administration of DEX; for Vd/F: taken as equal for DEX and DOR, read-out: V/F, volume of distribution; for Between‐subject variability of V/F: common to DEX and DOR
Experimental: Pharmacokinetic/pharmacodynamic analysis (PKPD) of DEX and DOR was conducted using non‐linear mixed effects modelling with Monolix software, 2024R1 (Lixoft SAS, Antony, France). The analysis followed a sequential approach, where the PK parameters of both compounds were estimated initially, and then these were used alongside the cough data to build the PK/PD model. The model components are described below:
A joint parent drug‐metabolite model[26] (Figure 1) was considered for DEX and DOR following administration of DEX with first‐pass effect and without dose apportionment. Different goodness‐of‐fit factors, such as corrected Bayesian information criterion (BICc), various diagnostic plots, such as visual predictive check used for final model selection. This model assumed a one‐compartment model for both compounds and unidirectional transformation of the parent drug to the metabolite in DEX arm of the study. The distribution of DOR after its administration on its own in a separate arm of the study was considered to follow a two‐compartment model. Inter‐individual variability of PK parameters was assumed to be log‐normally distributed. Proportional error model was used to model the intra‐individual variability.
Figure 1 Schematic representation of the joint parent drug‐metabolite structural model with first‐pass effect and without dose‐apportionment used to describe the pharmacokinetics of dextromethorphan and dextrorphan following administration of dextromethorphan. F, bioavailability of the parent drug; DEX dose, dose of dextromethorphan; ka(DORDEX), absorption constant of dextromethorphan; ka(DOR), absorption constant of dextrorphan; kpm, transformation rate constant from parent to metabolite; VDEX and VDOR_DEX are the volume of the central compartment for the dextromethorphan and dextrorphan, respectively which are considered to be equal; k(DEX), elimination rate constant for dextromethorphan by other pathways; k(DOR), the elimination constant of dextrorphan.
As shown, the concentration of DOR formed by the metabolism of DEX is higher than that of the DOR after preformed DOR is administered on its own. The joint parent drug‐metabolite model with first‐pass effect and without dose apportionment best described the plasma concentration‐time profile of DEX and unconjugated DOR following administration of DEX. The two‐compartment model fitted well to the data of DOR from the administration of preformed DOR. The goodness‐of‐fit of the combined models could be seen in the observed versus predicted plots and visual predictive check graphs of the models (Figure 4). […] Since there was not enough data in the absorption phase, the value of first‐order absorption rate constant for both DEX and preformed DOR was fixed to the reported values of 2.6 h^−1 23. To prevent the identifiability problem, equal extravascular apparent volume of distributions were considered for the parent drug and the metabolite in the joint model. It is important to emphasize that the primary focus of this study is on characterizing the PKPD relationship rather than on developing a detailed PK model. While a mechanistic PK model can provide insights, our primary objective can also be achieved using any empirical PK model, provided it adequately describes the data and supports the PKPD link. The selection of a one‐compartment model for DEX and a two‐compartment model for DOR reflects this practical approach and ensures compatibility with the data under different conditions. The disparity of the disposition model for DOR may indicate that formation kinetics from DEX masks the first phase of distribution when assessing the kinetics of formed DOR, whilst this becomes evident under direct administration of DOR.

[3] = both sexes, human, plasma, oral, population estimate
[4] = population PK model, direct administration of DOR
[5] = population estimate, after direct administration of DOR

Structure (SMILES): COc1ccc2c(c1)[C@]13CCCC[C@@H]1[C@H](C2)N(C)CC3 [DEX, dextromethorphan]
- Emax, maximum percentage of cough number reduction, mean [1]: −46%
- AUEC0‐24 h, mean [1]: −299 %hr
- TEmax, time of maximum percentage of reduction in cough number, mean [1]: 3.9 h
- Emax, maximum percentage of cough number reduction, median [1]: −44%
- AUEC0‐24 h, median [1]: −286 %hr
- TEmax, time of maximum percentage of reduction in cough number, median [1]: 3.0 h
- Emax and TEmax compared between DEX, DOR and placebo arms [1]: no significant differences
- Antitussive effect (AUEC0‐24 h) compared between DEX, DOR and placebo arms [1]: no significant difference
- Vd/F [2, 3]: 4870 L
- k el ([2]; both sexes, human, plasma, oral, population estimate, read-out: k(DEX), elimination rate constant for dextromethorphan by other pathways (converted)): 2.78e-05 s⁻¹
- Between‐subject variability of k(DEX) ([2]; population PK model): 108 CV%
- Between‐subject variability of kpm ([2]; population PK model): 43 CV%
- Between‐subject variability of V/F ([2]; population PK model): 48 CV%
- kpm, transformation rate constant from parent (dextromethorphan) to metabolite (dextrorphan) ([2]; population estimate): 0.04 h⁻¹

Structure (SMILES): CN1CC[C@@]23CCCC[C@@H]2[C@@H]1Cc1ccc(O)cc13 [DOR, dextrorphan]
- Emax, maximum percentage of cough number reduction, mean [1]: −45%
- AUEC0‐24 h, mean [1]: −189 %hr
- TEmax, time of maximum percentage of reduction in cough number, mean [1]: 6.3 h
- Emax, maximum percentage of cough number reduction, median [1]: −46%
- AUEC0‐24 h, median [1]: −170 %hr
- TEmax, time of maximum percentage of reduction in cough number, median [1]: 5.5 h
- Emax and TEmax compared between DEX, DOR and placebo arms [1]: no significant differences
- Antitussive effect (AUEC0‐24 h) compared between DEX, DOR and placebo arms [1]: no significant difference; also recorded: did not reveal a statistically significant difference; also recorded: failed to show any statistical difference
- Vd/F [2, 3]: 4870 L
- Between‐subject variability of k(DOR) ([2]; population PK model): 32 CV%
- Between‐subject variability of V/F ([2]; population PK model): 48 CV%
- Between‐subject variability of V1/F(DOR) [2, 4]: 32 CV%
- Between‐subject variability of k12(DOR) [2, 4]: 196 CV%
- Between‐subject variability of k21(DOR) [2, 4]: 299 CV%
- k(DOR), elimination constant of dextrorphan ([2]; population estimate): 0.2 h⁻¹
- V1/F(DOR), volume of the central compartment [2, 5]: 6984 L
- k12(DOR), transfer rate constant central to peripheral [2, 5]: 0.57 h⁻¹
- k21(DOR), transfer rate constant peripheral to central [2, 5]: 0.60 h⁻¹
